Legend:
[1] = tested on: sulfonylurea herbicide-sensitive Scirpus juncoides var. ohwianus; test: Paddy pot weeding test, flooded, two-leaf stage (Test Example 1); assay type: in vivo; conditions: 1 g/are, three weeks after treatment, sensitive biotype, Kyoto Pref.
From the text: (§1) A 5 cm×5 cm Jiffy Pot™ was charged with paddy soil, then water was introduced into each pot, seeds of sulfonylurea herbicide-sensitive Scirpus juncoides var. ohwianus, sulfonylurea herbicide-sensitive Lindernia procumbens (Krock.) Philcox, sulfonylurea herbicide-sensitive Lindernia dubia subsp. major Pennell, sulfonylurea herbicide-resistant Scirpus juncoides var. ohwianus, sulfonylurea herbicide-resistant Lindernia procumbens (Krock.) Philcox and sulfonylurea herbicide-resistant Lindernia dubia subsp. major Pennell were sowed therein and cultivated for a prescribed period under flooding conditions. When the plants reached the two-leave stage, the prescribed number of Jiffy Pots where the plants had been grown were transferred to a 150-cm^2 rectangular plastic pot, and water was introduced to a height of 3 cm, and a chemical diluent containing a compound was applied into the pot in an amount of 1 g/are. The chemical diluent was prepared by dissolving 1.5 g compound in 2 L of N,N-dimethylformamide (DMF) containing, 2% (W/V) surfactant Tween™ 20 and then diluting it with water to adjust the total volume to 10 L.

[2] = tested on: sulfonylurea herbicide-resistant Lindernia procumbens (Krock.) Philcox; test: as above; assay type: in vivo; conditions: 1 g/are, three weeks after treatment, resistant biotype, Tajiri Town, Miyagi Pref.
From the text: as §1

[3] = tested on: sulfonylurea herbicide-sensitive Lindernia dubia subsp. major Pennell; test: as above; assay type: in vivo; conditions: 1 g/are, three weeks after treatment, sensitive biotype, Makabe Town, Ibaraki Pref.
From the text: as §1

[4] = tested on: sulfonylurea herbicide-sensitive Lindernia procumbens (Krock.) Philcox; test: as above; assay type: in vivo; conditions: 1 g/are, three weeks after treatment, sensitive biotype, Kyoto Pref.
From the text: as §1

[5] = tested on: sulfonylurea herbicide-resistant Lindernia dubia subsp. major Pennell; test: as above; assay type: in vivo; conditions: 1 g/are, three weeks after treatment, resistant biotype, Kawanishi Town, Yamagata Pref.
From the text: as §1

[6] = tested on: sulfonylurea herbicide-resistant Scirpus juncoides var. ohwianus; test: as above; assay type: in vivo; conditions: 1 g/are, three weeks after treatment, resistant biotype, Iwamisawa City, Hokkaido
From the text: as §1

For `CCc1nc2ccc(OC)nn2c1NC(=O)NS(=O)(=O)c1nc(OC)cc(OC)n1` [Compound No. 6], the melting point was 118 to 123 °C (dec.).

Work on `COc1cc(C)nc(S(=O)(=O)NC(=O)Nc2c(Cl)nc3ccc(SC)nn23)n1` [Compound No. 27] yielded a melting point of 172 to 174 °C.

In the case of `COc1cc(OC)nc(NC(=O)NS(=O)(=O)c2c(C)nc3ccc(C(C)C)nn23)n1` [Compound No. 39], the “S Scirpus juncoides var. ohwianus (effect index)” value [1] is reported as 5 (excellent 81 to 100), the “R Lindernia procumbens (Krock.) Philcox (effect index)” value [2] is reported as 5 (excellent 81 to 100) and the “S Lindernia dubia subsp. major Pennell (effect index)” value [3] is reported as 5 (excellent 81 to 100). For the same molecule, the “S Lindernia procumbens (Krock.) Philcox (effect index)” value [4] was 5 (excellent 81 to 100), the “R Lindernia dubia subsp. major Pennell (effect index)” value [5] was 5 (excellent 81 to 100) and the “R Scirpus juncoides var. ohwianus (effect index)” value [6] was 5 (excellent 81 to 100).

With `CCCc1ccc2nc(Cl)c(S(=O)(=O)NC(=O)Nc3nc(OC)cc(OC)n3)n2n1` [Compound No. 38, 1-(2-chloro-6-n-propylimidazo[1,2-b]pyridazin-3-ylsulfonyl)-3-(4,6-dimethoxypyrimidin-2-yl)urea] the “S Scirpus juncoides var. ohwianus (effect index)” value [1] was 5 (excellent 81 to 100), the “R Lindernia procumbens (Krock.) Philcox (effect index)” value [2] was 5 (excellent 81 to 100) and the “S Lindernia dubia subsp. major Pennell (effect index)” value [3] was 5 (excellent 81 to 100). The “S Lindernia procumbens (Krock.) Philcox (effect index)” value [4] was 5 (excellent 81 to 100), the “R Lindernia dubia subsp. major Pennell (effect index)” value [5] was 5 (excellent 81 to 100) and the “R Scirpus juncoides var. ohwianus (effect index)” value [6] was 5 (excellent 81 to 100).

With `COc1cc(OC)nc(S(=O)(=O)NC(=O)Nc2c(C)nc3ccc(S(C)(=O)=O)nn23)n1` [Compound No. 21] the melting point was 246 to 248 °C (dec.).

`CCOc1ccc2nc(C(F)(F)F)c(NC(=O)NS(=O)(=O)c3nc(OC)cc(OC)n3)n2n1` [Compound No. 10] showed a melting point of 169 to 171 °C.

In the case of `COc1cc(OC)nc(NC(=O)NS(=O)(=O)c2c(Cl)nc3ccc(C4CC4)nn23)n1` [Compound No. 44], the “S Scirpus juncoides var. ohwianus (effect index)” value [1] is reported as 5 (excellent 81 to 100), the “S Lindernia dubia subsp. major Pennell (effect index)” value [3] is reported as 5 (excellent 81 to 100) and the “S Lindernia procumbens (Krock.) Philcox (effect index)” value [4] is reported as 5 (excellent 81 to 100). For the same molecule, the “R Lindernia dubia subsp. major Pennell (effect index)” value [5] was 5 (excellent 81 to 100) and the “R Scirpus juncoides var. ohwianus (effect index)” value [6] was 4 (high 61 to 80).

In the case of `CCOc1ccc2nc(Cl)c(NC(=O)NS(=O)(=O)c3nc(OC)cc(OC)n3)n2n1` [Compound No. 23], the “S Scirpus juncoides var. ohwianus (effect index)” value [1] is reported as 5 (excellent 81 to 100), the “S Lindernia dubia subsp. major Pennell (effect index)” value [3] is reported as 5 (excellent 81 to 100) and the “S Lindernia procumbens (Krock.) Philcox (effect index)” value [4] is reported as 5 (excellent 81 to 100). The “R Lindernia dubia subsp. major Pennell (effect index)” value [5] was 4 (high 61 to 80), the “R Scirpus juncoides var. ohwianus (effect index)” value [6] was 5 (excellent 81 to 100) and the melting point was 168 to 169 °C.

With `CCCCc1ccc2nc(Cl)c(S(=O)(=O)NC(=O)Nc3nc(OC)cc(OC)n3)n2n1` [Compound No. 41] the “S Scirpus juncoides var. ohwianus (effect index)” value [1] was 5 (excellent 81 to 100), the “R Lindernia procumbens (Krock.) Philcox (effect index)” value [2] was 4 (high 61 to 80) and the “S Lindernia dubia subsp. major Pennell (effect index)” value [3] was 5 (excellent 81 to 100). The “S Lindernia procumbens (Krock.) Philcox (effect index)” value [4] was 5 (excellent 81 to 100), the “R Lindernia dubia subsp. major Pennell (effect index)” value [5] was 5 (excellent 81 to 100) and the “R Scirpus juncoides var. ohwianus (effect index)” value [6] was 5 (excellent 81 to 100).

With `CCSc1ccc2nc(C(F)(F)F)c(NC(=O)NS(=O)(=O)c3nc(OC)cc(OC)n3)n2n1` [Compound No. 11] the “S Scirpus juncoides var. ohwianus (effect index)” value [1] was 5 (excellent 81 to 100), the “S Lindernia dubia subsp. major Pennell (effect index)” value [3] was 5 (excellent 81 to 100) and the “S Lindernia procumbens (Krock.) Philcox (effect index)” value [4] was 5 (excellent 81 to 100). The “R Lindernia dubia subsp. major Pennell (effect index)” value [5] was 5 (excellent 81 to 100), the “R Scirpus juncoides var. ohwianus (effect index)” value [6] was 5 (excellent 81 to 100) and the melting point was 179 to 180 °C.

With `COc1cc(OC)nc(NC(=O)NS(=O)(=O)c2c(Cl)nc3ccc(C(C)C)nn23)n1` [Compound No. 40] the “S Scirpus juncoides var. ohwianus (effect index)” value [1] was 5 (excellent 81 to 100), the “R Lindernia procumbens (Krock.) Philcox (effect index)” value [2] was 5 (excellent 81 to 100) and the “S Lindernia dubia subsp. major Pennell (effect index)” value [3] was 5 (excellent 81 to 100). For the same molecule, the “S Lindernia procumbens (Krock.) Philcox (effect index)” value [4] was 5 (excellent 81 to 100), the “R Lindernia dubia subsp. major Pennell (effect index)” value [5] was 5 (excellent 81 to 100) and the “R Scirpus juncoides var. ohwianus (effect index)” value [6] was 5 (excellent 81 to 100).

With `CCCc1nc2ccc(SC)nn2c1S(=O)(=O)NC(=O)Nc1nc(OC)cc(OC)n1` [Compound No. 31] the “S Scirpus juncoides var. ohwianus (effect index)” value [1] was 5 (excellent 81 to 100), the “S Lindernia dubia subsp. major Pennell (effect index)” value [3] was 5 (excellent 81 to 100) and the “S Lindernia procumbens (Krock.) Philcox (effect index)” value [4] was 5 (excellent 81 to 100). The “R Lindernia dubia subsp. major Pennell (effect index)” value [5] was 4 (high 61 to 80) and the “R Scirpus juncoides var. ohwianus (effect index)” value [6] was 5 (excellent 81 to 100).

Molecule `CCc1nc2ccc(C)nn2c1NC(=O)NS(=O)(=O)c1nc(OC)cc(OC)n1` [Compound No. 1] has a melting point of 182 to 184 °C.

With `C=Cc1ccc2nc(Cl)c(S(=O)(=O)NC(=O)Nc3nc(OC)cc(OC)n3)n2n1` [Compound No. 43] the “S Scirpus juncoides var. ohwianus (effect index)” value [1] was 5 (excellent 81 to 100), the “S Lindernia dubia subsp. major Pennell (effect index)” value [3] was 5 (excellent 81 to 100) and the “S Lindernia procumbens (Krock.) Philcox (effect index)” value [4] was 5 (excellent 81 to 100). The “R Lindernia dubia subsp. major Pennell (effect index)” value [5] was 5 (excellent 81 to 100) and the “R Scirpus juncoides var. ohwianus (effect index)” value [6] was 4 (high 61 to 80).

In the case of `C/C=C/c1ccc2nc(Cl)c(S(=O)(=O)NC(=O)Nc3nc(OC)cc(OC)n3)n2n1` [Compound No. 45], the “S Scirpus juncoides var. ohwianus (effect index)” value [1] is reported as 5 (excellent 81 to 100), the “S Lindernia dubia subsp. major Pennell (effect index)” value [3] is reported as 5 (excellent 81 to 100) and the “S Lindernia procumbens (Krock.) Philcox (effect index)” value [4] is reported as 5 (excellent 81 to 100). For the same molecule, the “R Lindernia dubia subsp. major Pennell (effect index)” value [5] was 5 (excellent 81 to 100) and the “R Scirpus juncoides var. ohwianus (effect index)” value [6] was 4 (high 61 to 80).

Work on `CCc1nc2ccc(Cl)nn2c1NC(=O)NS(=O)(=O)c1nc(OC)cc(OC)n1` [Compound No. 2] yielded a melting point of 174 to 175 °C.

With `COc1cc(OC)nc(S(=O)(=O)NC(=O)Nc2c(C)nc3c(C)cc(SC)nn23)n1` [Compound No. 20] the melting point was 191 to 193 °C (dec.).

For `COc1cc(OC)nc(NC(=O)NS(=O)(=O)c2c(Cl)nc3cccnn23)n1` [comparison 2, reference compound], the “S Scirpus juncoides var. ohwianus (effect index)” value [1] was 5 (excellent 81 to 100), the “R Lindernia procumbens (Krock.) Philcox (effect index)” value [2] was 0 (none 0) and the “S Lindernia dubia subsp. major Pennell (effect index)” value [3] was 5 (excellent 81 to 100). The “S Lindernia procumbens (Krock.) Philcox (effect index)” value [4] was 5 (excellent 81 to 100), the “R Lindernia dubia subsp. major Pennell (effect index)” value [5] was 0 (none 0) and the “R Scirpus juncoides var. ohwianus (effect index)” value [6] was 0 (none 0).

In the case of `COc1cc(OC)nc(S(=O)(=O)NC(=O)Nc2c(Cl)nc3ccc(N(C)C)nn23)n1` [Compound No. 22], the melting point is reported as 193 to 195 °C.

In the case of `COc1cc(OC)nc(S(=O)(=O)NC(=O)Nc2c(C)nc3c(C)cc(N(C)C)nn23)n1` [Compound No. 15], the melting point is reported as 266 to 268 °C (dec.).

Work on `COc1cc(OC)nc(S(=O)(=O)NC(=O)Nc2c(C)nc3ccc(OC)nn23)n1` [Compound No. 17] yielded a melting point of 241 °C.

With `CCOc1ccc2nc(CC)c(NC(=O)NS(=O)(=O)c3nc(OC)cc(OC)n3)n2n1` [Compound No. 5] the melting point was 180 to 181 °C.

In the case of `CCOc1ccn2nc(C)c(NC(=O)NS(=O)(=O)c3nc(OC)cc(OC)n3)c2n1` [compound 34], the “S Scirpus juncoides var. ohwianus (effect index)” value [1] is reported as 4 (high 61 to 80), the “S Lindernia procumbens (Krock.) Philcox (effect index)” value [4] is reported as 5 (excellent 81 to 100) and the “R Lindernia dubia subsp. major Pennell (effect index)” value [5] is reported as 5 (excellent 81 to 100). For the same molecule, the “R Scirpus juncoides var. ohwianus (effect index)” value [6] was 4 (high 61 to 80).

In the case of `CCSc1ccc2nc(Cl)c(NC(=O)NS(=O)(=O)c3nc(OC)cc(OC)n3)n2n1` [Compound No. 25], the “S Scirpus juncoides var. ohwianus (effect index)” value [1] is reported as 5 (excellent 81 to 100), the “S Lindernia dubia subsp. major Pennell (effect index)” value [3] is reported as 5 (excellent 81 to 100) and the “S Lindernia procumbens (Krock.) Philcox (effect index)” value [4] is reported as 5 (excellent 81 to 100). The “R Lindernia dubia subsp. major Pennell (effect index)” value [5] was 4 (high 61 to 80), the “R Scirpus juncoides var. ohwianus (effect index)” value [6] was 5 (excellent 81 to 100) and the melting point was 180 to 182 °C.

In the case of `CCCc1ccc2nc(C)c(S(=O)(=O)NC(=O)Nc3nc(OC)cc(OC)n3)n2n1` [Compound No. 36], the “S Scirpus juncoides var. ohwianus (effect index)” value [1] is reported as 5 (excellent 81 to 100), the “R Lindernia procumbens (Krock.) Philcox (effect index)” value [2] is reported as 5 (excellent 81 to 100) and the “S Lindernia dubia subsp. major Pennell (effect index)” value [3] is reported as 5 (excellent 81 to 100). The “S Lindernia procumbens (Krock.) Philcox (effect index)” value [4] was 5 (excellent 81 to 100), the “R Lindernia dubia subsp. major Pennell (effect index)” value [5] was 5 (excellent 81 to 100) and the “R Scirpus juncoides var. ohwianus (effect index)” value [6] was 5 (excellent 81 to 100).

With `CCCc1ccc2nc(F)c(S(=O)(=O)NC(=O)Nc3nc(OC)cc(OC)n3)n2n1` [Compound No. 46] the “S Scirpus juncoides var. ohwianus (effect index)” value [1] was 5 (excellent 81 to 100), the “S Lindernia dubia subsp. major Pennell (effect index)” value [3] was 5 (excellent 81 to 100) and the “S Lindernia procumbens (Krock.) Philcox (effect index)” value [4] was 5 (excellent 81 to 100). The “R Lindernia dubia subsp. major Pennell (effect index)” value [5] was 5 (excellent 81 to 100) and the “R Scirpus juncoides var. ohwianus (effect index)” value [6] was 5 (excellent 81 to 100).

Source: patent US8399381B2, “Condensed heterocyclic sulfonyl urea compound, a herbicide containing the same, and a method for weed control using the same” (Sumitomo Chemical Company, Limited, priority 2002, dated 2013)
